1 compound from patent US9101564B2, “Heparanase activity inhibitor, wrinkle improving agent containing same, and pharmaceutical composition” (Shiseido Company, Ltd., priority 2009, dated 2015) can be followed below.

This test concerns the target T1, heparanase (Homo sapiens, UniProt Q9Y251).
T1 construct: the supernatant was recovered as cell extract; endogenous in cells; host or cells: A431 (human epithelial carcinoma cells), Triton X-100 lysate
T1 sequence (Q9Y251 158-543 limits assumed): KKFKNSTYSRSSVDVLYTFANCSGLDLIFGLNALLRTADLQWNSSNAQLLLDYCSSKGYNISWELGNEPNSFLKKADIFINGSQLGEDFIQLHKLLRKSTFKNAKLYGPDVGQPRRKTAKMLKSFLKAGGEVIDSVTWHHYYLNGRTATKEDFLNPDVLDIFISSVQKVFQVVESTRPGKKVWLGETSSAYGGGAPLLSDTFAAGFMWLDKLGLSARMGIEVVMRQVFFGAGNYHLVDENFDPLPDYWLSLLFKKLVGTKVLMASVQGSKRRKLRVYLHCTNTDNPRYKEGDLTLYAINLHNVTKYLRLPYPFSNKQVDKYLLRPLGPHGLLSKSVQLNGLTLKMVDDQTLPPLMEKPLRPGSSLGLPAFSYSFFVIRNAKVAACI
T1 sequence (Q9Y251 36-109 limits assumed): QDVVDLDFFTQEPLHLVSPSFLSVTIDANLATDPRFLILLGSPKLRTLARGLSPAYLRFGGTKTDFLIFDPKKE
Put plainly: Heparanase activity inhibition rate, A431 cell extract on biotinylated heparan sulfate-immobilized plate. It counts as biochemical. The conditions noted are these: A431 cell extract 500 μg/mL, 37° C., 2 hours, DMSO 5%. On the procedure: A431 cells (human epithelial carcinoma cells) were cultured in 10% serum-containing DMEM (Dulbecco's modified Eagle medium). The cultured cells were solubilized in lysis buffer (50 mM Tris, 0.5% TritonX-100, 0.15 M sodium chloride, pH 4.5) and collected with a scraper, and then pipetted and allowed to stand on ice for 30 minutes. This was followed by centrifugation at 10,000 rpm for 10 minutes to remove the insoluble portion, and the supernatant was recovered as cell extract. The amount of protein in the cell extract was measured with a BCA protein assay kit (BCA Protein Assay Kit, PIERCE, Calif. 46141).
The A431 cell extract was then diluted to 500 μg/mL with assay buffer (50 mM HEPES, 50 mM sodium acetate, 150 mM sodium chloride, 9 mM calcium chloride, 0.1% BSA). Next, the test compound was dissolved in DMSO and added to the diluted cell extract in proportions of 0.0005 mass %, 0.005 mass % and 0.05 mass %, and these were mixed to prepare sample solutions (DMSO final concentration: 5%). A control solution was prepared by mixing DMSO with the diluted cell extract to a final concentration of 5%. The sample solution and control solution were each seeded in a biotinylated heparan sulfate-immobilized plate at 100 μL/well. […] After further rinsing 3 times with PBS-T, TMB reagent (BIO-RAD, 172-1066) was added at 100 μL/well and reacted therewith, the reaction was terminated with 1N sulfuric acid, and the absorbance at 475 nm (OD475) was measured.
Also, DMSO was added to a serial diluent prepared with the aforementioned A431 cell extract assay buffer (cell extract concentrations: 500 μg/mL, 50 μg/mL, 5 μg/mL, 0.5 μg/mL), to a final concentration of 5% without addition of the test compound, to obtain a mixture (solution for calibration curve). The solution for the calibration curve was subjected to treatment by the same procedure described above, from seeding of the biotinylated heparan sulfate-immobilized plate, and the OD475 was measured. […]

Turning to `CC(C)Cc1ccc(O)cc1O` [4-Isobutylresorcinol, 4-isobutylresorcinol], the “Heparanase activity inhibition rate” value worked out at 37.64% (added concentration 0.0005 mass %), 75.98% (added concentration 0.005 mass %) and 94.74% (added concentration 0.05 mass %).
